Data on one compound can be found in patent EP4257135A1, “BENZIMIDAZOLE DERIVATIVES FOR PULMONARY ARTERIAL HYPERTENSION” (Justus-Liebig-Universität Gießen, priority 2022, dated 2023).

The test system of one assay is PAH-SMCs. As to the kind of experiment: Hyperproliferative phenotype of PAH smooth muscle cells. The format is cell-based, human. Conditions: vs DMSO. An excerpt:
PAH-FBs wurden mit verschiedenen Konzentrationen der Substanz SGC-CBP30 oder dem Lösungsmittel DMSO inkubiert, um die Zellproliferation und die Induktion von Apoptose 24 Stunden danach zu untersuchen. Die Wirkung der selektiven EP300/CREBBP-Inhibition auf die Zellproliferation wurde durch den Einbau von BrdU (Bromodeoxyuridin, 5-Bromo-2'-Deoxyuridin, BUdR, BrdUrd, Broxuridine) bewertet. Die Wirkung der Substanz SGC-CBP30 oder des Lösungsmittels DMSO auf die Induktion von Apoptose wurde durch Cell Death Detection ELISAPLUS bewertet. Dabei zeigten sich deutliche Unterschiede zwischen der Substanz SGC-CBP30 und dem Lösungsmittel DMSO.
Das therapeutische Potenzial der EP300/CREBBP-Hemmung durch die Substanz SGC-CBP30 wurde untersucht. Dazu wurde die Wirksamkeit auf PAH-FBs und PAH-SMCs geprüft, die aus den Lungenarterien von menschlichen PAH-Patienten und aus den Lungenarterien von Ratten mit MCT-PAH (Rattenmodell mit Monocrotalin) isoliert wurden. […] Die Wirkung der EP300-Hemmung auf das vaskuläre Remodelling wurde durch Quantifizierung der prozentualen medialen Wanddicke in den mit der Substanz SGC-CBP30 inkubierten PCLS im Vergleich zu den mit DMSO inkubierten Kontrollen bewertet. Dabei zeigten sich deutliche Unterschiede zwischen der Substanz SGC-CBP30 und DMSO.

Another assay relates to PAH-FBs. The assay can be described thus: Apoptosis by Cell Death Detection ELISAPLUS in PAH fibroblasts. It is filed as cell-based, human. The note with it: PAH-FBs isolated ex vivo; various concentrations; vs DMSO; 24 h. An excerpt:
Diese Untersuchungen führten zu der Erkenntnis, dass die epigenetische Regulation der entwicklungsbedingten TF-Expression in der Lunge durch Modulation der EP300/CREBBP-Funktion rückgängig gemacht werden kann. Die Wirkung des niedermolekularen Inhibitors (Substanz, Wirkstoff) SGC-CBP30 auf die Proliferation von Gefäßzellen, die Apoptose sowie die Gen- und Proteinexpression wurde mit Hilfe geeigneter Assays nach der Transfektion untersucht. Nachdem Zellen zur Subkonfluenz gewachsen sind, wurde ihnen mit steigenden Konzentrationen der selektive EP300-Inhibitor SGC-CBP30 (Sigma, Katalognummer: SML1133) hinzugefügt. Die aus PAH-Patienten isolierten FBs wurden also mit dem isoformselektiven HAT-Inhibitor SGC-CBP30 behandelt. Gleichzeitig wurde den Zellen das Lösungsmittel DMSO (Sigma) mit entsprechenden Konzentrationen hinzugefügt. […]
• A: PAH-FBs wurden mit siRNAs (siP300) behandelt, die auf EP300 abzielen (n=3), um die genspezifische funktionelle Rolle von EP300 bei der Hyperproliferation ex vivo 48 Stunden nach der Transfektion zu untersuchen. […] Skalenbalken: 50 µm. • E: Die Wirkung der P300-Inhibition (200 µM) auf den Gefäßumbau wurde durch Quantifizierung der prozentualen medialen Wanddicke in den mit dem EP300/CREBBP-Inhibitor SGC-CBP30 inkubierten PCLS im Vergleich zu den mit DMSO inkubierten Kontrollen bewertet. […]

As to `COc1ccc(CCc2nc3cc(-c4c(C)noc4C)ccc3n2C[C@H](C)N2CCOCC2)cc1Cl` [SGC-CBP30, 2-[2-(3-Chloro-4-methoxyphenyl)ethyl]-5-(3,5-dimethyl-1,2-oxazol-4-yl)-1-[(S)-2-(morpholin-4-yl)propyl]-1H-benzimidazole], the “hyperproliferativer Phänotyp” value in the assay with PAH-SMCs is recorded as “schwächte den hyperproliferativen Phänotyp und die Apoptoserate von PAH-FBs und PAH-SMCs deutlich ab”. Besides, the Apoptoserate result with PAH-FBs is listed as “schwächte den hyperproliferativen Phänotyp und die Apoptoserate von PAH-FBs und PAH-SMCs deutlich ab”.
